Source: PubChem BioAssay (NCI)
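Growth conditions: 96-well plates. Treatment: test compound, 48 hours, 5 concentrations. Analysis: linear interpolation between bracketing concentrations; unreached endpoints set to highest concentration. The concentration for 50% growth inhibition is given as GI50. TGI: concentration producing complete growth inhibition.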

What was measured:
Test in all cases: NCI-60 cell line screen, 48 h
NCI-H522 lung = tested on: NCI-H522 lung
KM12 colon = tested on: KM12 colon
HS 578T breast = tested on: HS 578T breast
BT-549 breast = tested on: BT-549 breast
DU-145 prostate = tested on: DU-145 prostate
HCC-2998 colon = tested on: HCC-2998 colon
A549 NSCLC = tested on: A549 NSCLC
A498 renal = tested on: A498 renal
SW-620 colon = tested on: SW-620 colon
COLO 205 colon = tested on: COLO 205 colon
SK-MEL-5 melanoma = tested on: SK-MEL-5 melanoma
U251 CNS = tested on: U251 CNS
IGROV1 ovarian = tested on: IGROV1 ovarian
SR leukemia = tested on: SR leukemia
OVCAR-4 ovarian = tested on: OVCAR-4 ovarian
SN12C renal = tested on: SN12C renal
SNB-19 CNS = tested on: SNB-19 CNS
MDA-MB-231 breast = tested on: MDA-MB-231 breast
NCI-H23 lung = tested on: NCI-H23 lung
UO-31 renal = tested on: UO-31 renal
RPMI-8226 leukemia = tested on: RPMI-8226 leukemia
SF-295 CNS = tested on: SF-295 CNS
MOLT-4 leukemia = tested on: MOLT-4 leukemia
NCI-H460 lung = tested on: NCI-H460 lung
786-0 renal = tested on: 786-0 renal
SK-OV-3 ovarian = tested on: SK-OV-3 ovarian
K-562 leukemia = tested on: K-562 leukemia
HOP-92 NSCLC = tested on: HOP-92 NSCLC
MCF7 breast = tested on: MCF7 breast
M14 melanoma = tested on: M14 melanoma
HCT-15 colon = tested on: HCT-15 colon
HCT-116 colon = tested on: HCT-116 colon
OVCAR-3 ovarian = tested on: OVCAR-3 ovarian
HOP-62 NSCLC = tested on: HOP-62 NSCLC
MALME-3M melanoma = tested on: MALME-3M melanoma
RXF 393 renal = tested on: RXF 393 renal
NCI/ADR-RES ovarian = tested on: NCI/ADR-RES ovarian
OVCAR-5 ovarian = tested on: OVCAR-5 ovarian
SF-539 CNS = tested on: SF-539 CNS
SK-MEL-2 melanoma = tested on: SK-MEL-2 melanoma
T-47D breast = tested on: T-47D breast
UACC-62 melanoma = tested on: UACC-62 melanoma
ACHN renal = tested on: ACHN renal
CAKI-1 renal = tested on: CAKI-1 renal
PC-3 prostate = tested on: PC-3 prostate
NCI-H226 lung = tested on: NCI-H226 lung
OVCAR-8 ovarian = tested on: OVCAR-8 ovarian
UACC-257 melanoma = tested on: UACC-257 melanoma
MDA-MB-435 = tested on: MDA-MB-435
EKVX NSCLC = tested on: EKVX NSCLC
HL-60(TB) leukemia = tested on: HL-60(TB) leukemia
SF-268 CNS = tested on: SF-268 CNS
LOX IMVI melanoma = tested on: LOX IMVI melanoma
CCRF-CEM leukemia = tested on: CCRF-CEM leukemia
SK-MEL-28 melanoma = tested on: SK-MEL-28 melanoma
SNB-75 CNS = tested on: SNB-75 CNS
TK-10 renal = tested on: TK-10 renal

O=C1Nc2ccc3c(c2/C1=C\c1cc2c(cc1Br)OCO2)OCO3
GI50 (NCI-H522 lung): 0.369 µM | TGI (NCI-H522 lung): 8.17 µM | GI50 (KM12 colon): 0.307 µM | TGI (KM12 colon): 1.43 µM | GI50 (HS 578T breast): 0.376 µM | TGI (HS 578T breast): 2.11 µM | GI50 (BT-549 breast): 0.71 µM | TGI (BT-549 breast): 39.5 µM | GI50 (DU-145 prostate): 0.49 µM | TGI (DU-145 prostate): 2.11 µM | GI50 (HCC-2998 colon): 1.65 µM | TGI (HCC-2998 colon): > 100 µM | GI50 (A549 NSCLC): 0.731 µM | TGI (A549 NSCLC): 2.49 µM | GI50 (A498 renal): 0.287 µM | TGI (A498 renal): 1.08 µM | GI50 (SW-620 colon): 0.357 µM | TGI (SW-620 colon): 3.47 µM | GI50 (COLO 205 colon): 0.356 µM | TGI (COLO 205 colon): 2.66 µM | GI50 (SK-MEL-5 melanoma): 0.429 µM | TGI (SK-MEL-5 melanoma): 2.52 µM | GI50 (U251 CNS): 0.422 µM | TGI (U251 CNS): 1.68 µM | GI50 (IGROV1 ovarian): 0.199 µM | TGI (IGROV1 ovarian): 1.7 µM | GI50 (SR leukemia): 0.239 µM | TGI (SR leukemia): > 30.8 µM | GI50 (OVCAR-4 ovarian): 1.7 µM | TGI (OVCAR-4 ovarian): 5.14 µM | GI50 (SN12C renal): 0.781 µM | TGI (SN12C renal): 6.47 µM | GI50 (SNB-19 CNS): 0.552 µM | TGI (SNB-19 CNS): 7.04 µM | GI50 (MDA-MB-231 breast): 0.793 µM | TGI (MDA-MB-231 breast): 3.27 µM | GI50 (NCI-H23 lung): 0.857 µM | TGI (NCI-H23 lung): 7.42 µM | GI50 (UO-31 renal): 0.191 µM | TGI (UO-31 renal): 2.13 µM | GI50 (RPMI-8226 leukemia): 0.27 µM | TGI (RPMI-8226 leukemia): 0.801 µM | GI50 (SF-295 CNS): 0.527 µM | TGI (SF-295 CNS): 2.5 µM | GI50 (MOLT-4 leukemia): 0.489 µM | TGI (MOLT-4 leukemia): > 100 µM | GI50 (NCI-H460 lung): 0.35 µM | TGI (NCI-H460 lung): 1.35 µM | GI50 (786-0 renal): 1.24 µM | TGI (786-0 renal): 3.43 µM | GI50 (SK-OV-3 ovarian): 0.512 µM | TGI (SK-OV-3 ovarian): 1.89 µM | GI50 (K-562 leukemia): 0.179 µM | TGI (K-562 leukemia): > 35.9 µM | GI50 (HOP-92 NSCLC): 1.16 µM | TGI (HOP-92 NSCLC): 4.37 µM | GI50 (MCF7 breast): 0.351 µM | TGI (MCF7 breast): 2.87 µM | GI50 (M14 melanoma): 0.341 µM | TGI (M14 melanoma): 5.76 µM | GI50 (HCT-15 colon): 0.515 µM | TGI (HCT-15 colon): > 100 µM | GI50 (HCT-116 colon): 0.376 µM | TGI (HCT-116 colon): 1.72 µM | GI50 (OVCAR-3 ovarian): 0.217 µM | TGI (OVCAR-3 ovarian): 0.589 µM | GI50 (HOP-62 NSCLC): 0.393 µM | TGI (HOP-62 NSCLC): 2.07 µM | GI50 (MALME-3M melanoma): 0.423 µM | TGI (MALME-3M melanoma): 4.16 µM | GI50 (RXF 393 renal): 0.901 µM | TGI (RXF 393 renal): 3.78 µM | GI50 (NCI/ADR-RES ovarian): 0.364 µM | TGI (NCI/ADR-RES ovarian): 4.97 µM | GI50 (OVCAR-5 ovarian): 1.55 µM | TGI (OVCAR-5 ovarian): 5.89 µM | GI50 (SF-539 CNS): 0.311 µM | TGI (SF-539 CNS): 1.12 µM | GI50 (SK-MEL-2 melanoma): 3.4 µM | TGI (SK-MEL-2 melanoma): > 100 µM | GI50 (T-47D breast): 0.969 µM | TGI (T-47D breast): 6.58 µM | GI50 (UACC-62 melanoma): 0.359 µM | TGI (UACC-62 melanoma): 3.23 µM | GI50 (ACHN renal): 0.689 µM | TGI (ACHN renal): 6.55 µM | GI50 (CAKI-1 renal): 0.331 µM | TGI (CAKI-1 renal): 2.8 µM | GI50 (PC-3 prostate): 0.338 µM | TGI (PC-3 prostate): 2.8 µM | GI50 (NCI-H226 lung): 1.38 µM | TGI (NCI-H226 lung): 5.35 µM | GI50 (OVCAR-8 ovarian): 0.855 µM | TGI (OVCAR-8 ovarian): 4.87 µM | GI50 (UACC-257 melanoma): 0.685 µM | GI50 (MDA-MB-435): 0.106 µM | TGI (MDA-MB-435): 0.305 µM | GI50 (EKVX NSCLC): 0.639 µM | TGI (EKVX NSCLC): 8.09 µM | GI50 (HL-60(TB) leukemia): 0.271 µM | TGI (HL-60(TB) leukemia): 2.35 µM | GI50 (SF-268 CNS): 0.524 µM | TGI (SF-268 CNS): 3.28 µM | GI50 (LOX IMVI melanoma): 0.652 µM | TGI (LOX IMVI melanoma): 4.57 µM | GI50 (CCRF-CEM leukemia): 0.244 µM | TGI (CCRF-CEM leukemia): 3.05 µM | GI50 (SK-MEL-28 melanoma): 0.911 µM | TGI (SK-MEL-28 melanoma): 5.32 µM | GI50 (SNB-75 CNS): 0.189 µM | TGI (SNB-75 CNS): 1.41 µM | GI50 (TK-10 renal): 1.52 µM | TGI (TK-10 renal): 3.84 µM
